Measurements taken from publication PMC11276849, “A Female-Biased Chemosensory Protein PxutCSP19 in the Antennae of Papilio xuthus Tuned to Host Volatiles and Insecticides” (Insects, 2024).
Read-outs that look alike come from different tables or passages of the source.

Columns and labels:
PxutCSP19-T2 [1] = molecular target: T1, PxutCSP19-T2 (Papilio xuthus, UniProt A0A194QJK0); assay: Binding of fluorescent probe 1-NPN to PxutCSP19-T2 (titration, Scatchard); conditions: read-out: K1-NPN (binding constant of 1-NPN)
T1 sequence (A0A194QJK0 53-142): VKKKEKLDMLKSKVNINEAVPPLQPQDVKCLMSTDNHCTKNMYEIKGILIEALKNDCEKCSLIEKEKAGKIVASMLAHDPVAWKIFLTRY
Description: (§1) In order to investigate the ligand-binding properties of PxutCSP19 to host odorants and insecticides, we first asked whether this fluorescent probe 1-NPN was available for the binding of PxutCSP19. To calculate the binding ability of PxutCSP19 to 1-NPN, we titrated different final concentrations of 1-NPN (2~20 μM) into Tris-HCl buffer (pH 7.4) containing 2 μM PxutCSP19. The binding constant (K1-NPN) of 1-NPN to this protein was determined with GraphPad Prism 7 (GraphPad Software Inc., San Diego, CA), as previously described. The solution was excited at 337 nm and the emission peak was monitored at 414 nm on an RF-5301PC spectrofluorometer (Shimadzu, Kyoto, Japan) using a quartz micro-cuvette filled with a 100 μL mixture, with 5 nm excitation and emission slit widths. If the host odorant molecules could displace more than 40% of the 1-NPN fluorescence from the binding cavity of PxutCSP19, the compounds would be continuously added up to 36 μM with triplicates. For the binding experiments, each compound would be added into the PxutCSP19/1-NPN (each 2 μM) complex with final concentrations of 2~20 μM. […]

PxutCSP19 [2] = molecular target: T2, PxutCSP19 (Papilio xuthus, UniProt A0A194QJK0); assay: Binding of fluorescent probe 1-NPN to wildtype PxutCSP19 (titration, Scatchard)
T2 sequence (A0A194QJK0 entry or part of it): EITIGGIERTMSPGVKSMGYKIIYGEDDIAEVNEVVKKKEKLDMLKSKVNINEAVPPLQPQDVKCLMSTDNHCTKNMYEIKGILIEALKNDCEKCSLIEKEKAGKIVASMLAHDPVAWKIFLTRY
Description: as §1

PxutCSP19-T1 [3] = molecular target: T3, PxutCSP19-T1 (Papilio xuthus, UniProt A0A194QJK0); assay: Binding of fluorescent probe 1-NPN to PxutCSP19-T1 (titration, Scatchard); conditions: read-out: K1-NPN (binding constant of 1-NPN)
T3 sequence (A0A194QJK0 35-142): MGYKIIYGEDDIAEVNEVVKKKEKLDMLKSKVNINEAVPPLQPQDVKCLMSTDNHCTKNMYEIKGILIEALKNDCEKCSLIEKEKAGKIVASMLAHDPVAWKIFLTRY
Description: as §1

PxutCSP19-T1 [4] = molecular target: T3, PxutCSP19-T1; assay: Fluorescence competitive binding assay (1-NPN displacement), truncated PxutCSP19-T1; conditions: for inhibition at 20 µM: T1 (17 N-terminal residues truncated), ligand at 20 μM, read-out: F.D. (fluorescent displacement rate of ligands); for Ki: Ki = [IC50]/(1 + [1-NPN]/K1-NPN)
Description: (§2) In order to investigate the ligand-binding properties of PxutCSP19 to host odorants and insecticides, we first asked whether this fluorescent probe 1-NPN was available for the binding of PxutCSP19. To calculate the binding ability of PxutCSP19 to 1-NPN, we titrated different final concentrations of 1-NPN (2~20 μM) into Tris-HCl buffer (pH 7.4) containing 2 μM PxutCSP19. The binding constant (K1-NPN) of 1-NPN to this protein was determined with GraphPad Prism 7 (GraphPad Software Inc., San Diego, CA), as previously described. The solution was excited at 337 nm and the emission peak was monitored at 414 nm on an RF-5301PC spectrofluorometer (Shimadzu, Kyoto, Japan) using a quartz micro-cuvette filled with a 100 μL mixture, with 5 nm excitation and emission slit widths. If the host odorant molecules could displace more than 40% of the 1-NPN fluorescence from the binding cavity of PxutCSP19, the compounds would be continuously added up to 36 μM with triplicates. For the binding experiments, each compound would be added into the PxutCSP19/1-NPN (each 2 μM) complex with final concentrations of 2~20 μM. […] We used the Ki values to compare the binding affinities of various ligands with the equation: Ki = [IC50]/(1 + [1-NPN]/K1-NPN), where IC50 represents the ligand concentrations displacing one half of the initial protein/1-NPN fluorescence, and [1-NPN] is the free concentration of 1-NPN at 2 μM.
(§3) To determine the effects of an extended N-terminal sequence (approximately 35 amino acids) on the binding specificity of PxutCSP19 to ligands, we next constructed two truncated PxutCSP19s. Firstly, the front 17 amino acids (i.e., EITIGGIERTMSPGVKS, defined as PxutCSP19-T1) and the front 35 amino acids (i.e., […], defined as PxutCSP19-T2) of the N-terminal region without the signal peptide were truncated, respectively. Secondly, the two truncated ORFs (PxutCSP19-T1: 360 bp and PxutCSP19-T2: 306 bp) of PxutCSP19s were separately amplified using RT–PCR with gene-specific primers (Table S2). After that, the amplified products were sub-cloned into pET-30a (+), i.e., pET-30a (+)/PxutCSP19-T1 and pET-30a (+)/PxutCSP19-T2. Using the above-described methods for the expression and purification of proteins, we obtained two truncated proteins. Furthermore, the binding characteristics of the truncated PxutCSP19s to ligands with high affinities were investigated, representing six host odorants and eight insecticides.

PxutCSP19-T2 [5] = molecular target: T1, PxutCSP19-T2; assay: Fluorescence competitive binding assay (1-NPN displacement), truncated PxutCSP19-T2; conditions: for inhibition at 20 µM: T2 (35 N-terminal residues truncated), ligand at 20 μM, read-out: F.D. (fluorescent displacement rate of ligands); for Ki: Ki = [IC50]/(1 + [1-NPN]/K1-NPN)
Description: as §2, §3

PxutCSP19 [6] = molecular target: T2, PxutCSP19; assay: Fluorescence competitive binding assay (1-NPN displacement), wildtype PxutCSP19; conditions: for inhibition at 20 µM: read-out: F.D. (fluorescent displacement rate of ligands), Wildtype (WT), ligand at 20 μM, PxutCSP19/1-NPN each 2 μM, NB = no binding
Source text: The open reading frame (ORF) of PxutCSP19 was cloned with a PrimeSTAR®® Max DNA Polymerase (TaKaRa, Liaoning, Dalian, China) and gene-specific primers containing restriction enzyme sites (BamH I and Xho I) (Table S2). The PCR products were detected on a 1.5% (w/v) agarose gel, and the expected bands were cut and purified using a HiPure Gel Pure DNA Mini Kit (Magen, Guangzhou, China). Next, BamH I and Xho I were used to digest the PxutCSP19 products and pET-30a (+) plasmids, followed by purification. A T4 DNA ligase (Thermo Fisher Scientific, Waltham, MA, USA) was applied to the construction of the recombinant plasmids pET-30a (+)/PxutCSP19. After being confirmed by sequencing, the plasmids were transformed into BL21 (DE3) competent cells so as to express recombinant proteins with 1.0 mM isopropyl β-D-thiogalactoside (IPTG). Because this recombinant protein pET-30a (+)/PxutCSP19 was insoluble, we applied a protein denaturation–renaturation approach to purify PxutCSP19 with an affinity chromatography technique, in which the denaturation buffer included 8 M urea and 1.0 mM β-mercaptoethanol.
as §2

| Structure (SMILES) | Kd (PxutCSP19-T2 [1]) | Kd (PxutCSP19 [2]) | Kd (PxutCSP19-T1 [3]) | inhibition at 20 µM (PxutCSP19-T1 [4]) | Ki (PxutCSP19-T1 [4]; T1) | IC50 (PxutCSP19-T1 [4]; T1, read-out: IC50) | inhibition at 20 µM (PxutCSP19-T2 [5]) | Ki (PxutCSP19-T2 [5]; T2) | IC50 (PxutCSP19-T2 [5]; T2, read-out: IC50) | IC50 (PxutCSP19 [6]) | inhibition at 20 µM (PxutCSP19 [6]) | IC50 (PxutCSP19-T1 [4]) | IC50 (PxutCSP19-T2 [5]) |
| --- | --- | --- | --- | --- | --- | --- | --- | --- | --- | --- | --- | --- | --- |
| c1ccc(Nc2cccc3ccccc23)cc1 [1-NPN, N-phenyl-1-naphthylamine] | 2.5 ± 0.25 µM | 2.65 ± 0.35 µM | 2.12 ± 0.47 µM |  |  |  |  |  |  |  |  |  |  |
| CCCCCCCCO [1-Octanol] |  |  |  | 43.5% | 21.7 ± 0.44 µM | 34.5 ± 0.7 µM | 42.7% | 22.8 ± 0.42 µM | 34.6 ± 0.64 µM | 34.5 ± 1.11 µM | > 40% |  |  |
| CCOCn1c(-c2ccc(Cl)cc2)c(C#N)c(Br)c1C(F)(F)F [Chlorfenapyr] |  |  |  | 63.8% | 6.47 ± 0.27 µM | 10.3 ± 0.43 µM | 64.3% | 6.68 ± 0.45 µM | 10.1 ± 0.68 µM | 10.71 ± 0.09 µM | 58.7% |  |  |
| O=C(NC(=O)c1c(F)cccc1F)Nc1cc(Cl)c(Oc2ncc(C(F)(F)F)cc2Cl)c(Cl)c1 [Chlorfluazuron] |  |  |  | 54.7% | 7.99 ± 0.94 µM | 12.7 ± 1.49 µM | 57% | 8.88 ± 0.4 µM | 13.5 ± 0.6 µM | 11.9 ± 1.04 µM | 60.5% |  |  |
| CCOP(=S)(OCC)Oc1nc(Cl)c(Cl)cc1Cl [Chlorpyrifos] |  |  |  | 70.3% |  |  | 73.2% |  |  | 5.52 ± 0.16 µM | 75.1% | 5.87 ± 0.47 µM | 5.32 ± 0.4 µM |
| O=C(NC(=O)c1c(F)cccc1F)Nc1cc(Cl)c(OC(F)(F)C(F)F)c(Cl)c1 [Hexaflumuron] |  |  |  | 56.5% | 7.78 ± 0.46 µM | 12.4 ± 0.73 µM | 59.6% | 8.02 ± 1.03 µM | 12.2 ± 1.56 µM | 12.1 ± 2.36 µM | 59.5% |  |  |
| COC(=O)N(C(=O)N1CO[C@@]2(C(=O)OC)Cc3cc(Cl)ccc3C2=N1)c1ccc(OC(F)(F)F)cc1 [Indoxacarb] |  |  |  | 59.1% | 7.08 ± 0.26 µM | 11.3 ± 0.41 µM | 62.5% | 7.98 ± 0.37 µM | 12.1 ± 0.56 µM | 10.8 ± 0.65 µM | 61.5% |  |  |
